{"source": "patent US12109207B2", "about": "“Methods of using 4(1H)-quinolone derivatives” (Academia Sinica, priority 2019, dated 2024)", "key": {"HCT116": {"test_system": "HCT116", "experiment": "Cell cytotoxicity assay (MTS), HCT116", "assay_type": "cell-based", "conditions": "Homo sapiens, HCT-116", "method": "(§1) Cells were seeded into the wells of 96-well plates (2000 cells/well). After an overnight culture, the cells were treated with different concentrations of a compound for 72 h. The CellTiter 96 AQueous one-solution cell proliferation assay (MTS) reagent was used to determine cytotoxicity. After treatment with a compound, 20 μL of the MTS reagent was added to each well and the plates were incubated at 37° C. for 1-4 h. Next, the absorbance at 490 nm of the culture medium in each well was determined using a VersaMax microplate reader (Molecular Devices)."}, "HDQP1": {"test_system": "HDQP1", "experiment": "Cell cytotoxicity assay, HDQP1", "assay_type": "cell-based", "conditions": "Homo sapiens, HDQ-P1; TNBC cell line HDQP1", "method": "as §1"}, "KBvin": {"test_system": "KBvin", "experiment": "Cell cytotoxicity assay (MTS), KBvin", "assay_type": "cell-based, human", "outline": "(§2)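 Absorbance at 490 nm of the medium served as the cytotoxicity measure, taken after MTS reagent incubation at 37° C for 1-4 h. This followed 72 h compound treatment of cells plated at 2000 per well and allowed to attach overnight.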"}, "SW620": {"test_system": "SW620", "experiment": "Cell cytotoxicity assay (MTS), SW620", "assay_type": "cell-based", "conditions": "Homo sapiens, SW-620", "method": "as §1"}, "HDQP1/TAX": {"test_system": "HDQP1/TAX", "experiment": "Cell cytotoxicity assay, HDQP1/TAX", "assay_type": "cell-based, human", "method": "as §1"}, "H1975 cells": {"test_system": "H1975 cells", "experiment": "Cell cytotoxicity assay (MTS), H1975", "assay_type": "cell-based, human", "conditions": "H1975 cells, 72 h, MTS, read-out: IC50", "method": "as §1"}, "KBtax": {"test_system": "KBtax", "experiment": "Cell cytotoxicity assay (MTS), KBtax", "assay_type": "cell-based, human", "outline": "as §2"}, "BT-549": {"test_system": "BT-549", "experiment": "Cell cytotoxicity assay (MTS), BT-549", "assay_type": "cell-based", "conditions": "Homo sapiens, BT-549, 72 h", "method": "as §1"}, "CL1-0": {"test_system": "CL1-0", "experiment": "Cell cytotoxicity assay (MTS), CL1-0", "assay_type": "cell-based", "conditions": "Homo sapiens, CL1-0, 72 h", "method": "as §1"}, "Du-145": {"test_system": "Du-145", "experiment": "Cell cytotoxicity assay (MTS), Du-145", "assay_type": "cell-based", "conditions": "Homo sapiens", "method": "as §1"}, "Purified porcine tubulin": {"molecular_target": "T1, Purified porcine tubulin (Sus scrofa, UniProt P02554)", "T1 construct": "purchased Cytoskeleton", "T1 sequence (P02554 whole entry)": "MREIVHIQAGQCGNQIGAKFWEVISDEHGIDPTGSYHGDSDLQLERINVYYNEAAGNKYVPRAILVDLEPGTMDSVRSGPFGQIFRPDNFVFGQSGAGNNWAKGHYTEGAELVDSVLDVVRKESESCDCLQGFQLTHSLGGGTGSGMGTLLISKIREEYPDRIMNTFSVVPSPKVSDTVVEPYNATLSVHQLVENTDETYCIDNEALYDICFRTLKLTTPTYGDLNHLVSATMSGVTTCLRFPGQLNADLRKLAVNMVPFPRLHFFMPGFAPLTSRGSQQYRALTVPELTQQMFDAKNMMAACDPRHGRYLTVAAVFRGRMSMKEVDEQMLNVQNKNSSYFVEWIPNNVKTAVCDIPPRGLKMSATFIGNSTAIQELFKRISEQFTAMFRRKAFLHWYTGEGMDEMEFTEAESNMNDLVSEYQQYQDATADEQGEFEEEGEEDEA", "T1 sequence (P02550 whole entry partner)": "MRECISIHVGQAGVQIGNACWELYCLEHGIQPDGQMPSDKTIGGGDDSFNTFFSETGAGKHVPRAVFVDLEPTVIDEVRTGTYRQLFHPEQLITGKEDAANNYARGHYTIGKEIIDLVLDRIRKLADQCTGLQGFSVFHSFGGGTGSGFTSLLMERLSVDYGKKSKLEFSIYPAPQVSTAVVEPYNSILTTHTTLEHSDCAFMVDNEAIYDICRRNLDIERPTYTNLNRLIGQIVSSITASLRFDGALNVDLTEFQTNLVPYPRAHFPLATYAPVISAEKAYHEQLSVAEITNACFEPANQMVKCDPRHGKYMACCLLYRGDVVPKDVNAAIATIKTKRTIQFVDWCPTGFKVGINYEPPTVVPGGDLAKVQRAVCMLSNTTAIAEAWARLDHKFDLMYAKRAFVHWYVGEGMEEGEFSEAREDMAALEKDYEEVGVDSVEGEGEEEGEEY", "experiment": "In vitro tubulin polymerization assay", "assay_type": "biochemical", "conditions": "5 μM, A340 every min for 1 h at 37° C.", "method": "Reagents from a Tubulin Polymerization Assay kit (Cytoskeleton) were used according to the manufacturer's instructions. Purified porcine tubulin (4 mg/mL; >99% purity) in G-PEM buffer (80 mM PIPES, 2 mM MgCl2, 0.5 mM EGTA, 1 mM GTP, 15% glycerol, pH 6.9) was mixed with each test compound in the wells of a 96-well plate. Then, the A340 value was recorded each minute for 1 h at 37° C. with the VersaMax microplate reader."}, "A549": {"test_system": "A549", "experiment": "Cell cytotoxicity assay (MTS), A549", "assay_type": "cell-based", "conditions": "Homo sapiens, A549, 72 h", "method": "as §1"}, "HT-29": {"test_system": "HT-29", "experiment": "Cell cytotoxicity assay (MTS), HT-29", "assay_type": "cell-based", "conditions": "Homo sapiens", "method": "as §1"}, "CEM/VBL": {"test_system": "CEM/VBL", "experiment": "Cell cytotoxicity assay (MTS), CEM/VBL", "assay_type": "cell-based, human", "conditions": "CEM/VBL vs CCRF-CEM", "outline": "as §2"}, "IGR-OV1": {"test_system": "IGR-OV1", "experiment": "Cell cytotoxicity assay (MTS), IGR-OV1", "assay_type": "cell-based", "conditions": "Homo sapiens, IGROV-1", "method": "as §1"}, "KB": {"test_system": "KB", "experiment": "Cell cytotoxicity assay (MTS), KB", "assay_type": "cell-based", "conditions": "Homo sapiens", "outline": "as §2"}, "H1975 xenograft tumor": {"test_system": "H1975 xenograft tumor", "experiment": "H1975 xenograft tumor model", "assay_type": "in vivo, BALB/c nude mice", "conditions": "day 25", "method": "Using the H1975, MDA-MB-231, and KBtax xenograft models, tumors were established after inoculation into the right flanks of 6-week-old BALB/c nude mice (NARLabs, Taipei, Taiwan). After establishment of the tumors, vehicle and test compounds, which had been dissolved in DMSO, were each injected intraperitoneally into a separate group of animals three times per week. The body mass of each animal and tumor volumes were measured before each drug delivery. Tumor volume was calculated as 0.5W^2L (with W being the width of the smaller diameter and L being the length of the larger diameter). The animal experiment was carried out in accordance with the procedures and guidelines of the Institutional Animal Care and Use Committee, Institute of Biomedical Sciences, Academia Sinica."}, "CL1-0 and H1975 cells [1]": {"test_system": "CL1-0 and H1975 cells", "experiment": "Cell cycle analysis (flow cytometry)", "assay_type": "cell-based, human", "conditions": "24 h, propidium iodide", "method": "After treatment, cells were trypsinized and fixed in ice-cold 70% ethanol overnight. Fixed cells were washed with PBS and stained with 0.5 mL of a propidium iodide (10 μg/mL)/RNase (20 μg/mL) solution for 30 minutes. The cellular DNA content was analyzed with a FACSCanto flow cytometer (Becton Dickinson)."}, "MDA-MB-231": {"test_system": "MDA-MB-231", "experiment": "Cell cytotoxicity assay (MTS), MDA-MB-231", "assay_type": "cell-based", "conditions": "Homo sapiens, MDA-MB-231, 72 h", "method": "as §1"}, "SKOV-3": {"test_system": "SKOV-3", "experiment": "Cell cytotoxicity assay (MTS), SKOV-3", "assay_type": "cell-based", "conditions": "Homo sapiens, SK-OV-3", "method": "as §1"}, "PC-3": {"test_system": "PC-3", "experiment": "Cell cytotoxicity assay (MTS), PC-3", "assay_type": "cell-based", "conditions": "Homo sapiens", "method": "as §1"}, "CL1-0 and H1975 cells [2]": {"test_system": "CL1-0 and H1975 cells", "experiment": "Pro-apoptotic protein immunoblotting, cancer cells", "assay_type": "cell-based, human", "conditions": "24 to 72 h", "method": "The cells were harvested and lysed in RIPA buffer (20 mM Tris-HCl, 150 mM NaCl, 1 mM Na2EDTA, 1% sodium deoxycholate, 1% IGEPAL CA-630, 0.1% SDS, pH 7.5) with protease inhibitors (Roche). Protein concentration was measured by the BCA assay. For immunoprecipitation, protein extracts were incubated with mag-beads-AS1712 or mag-beads-control at 4° C. overnight and then washed five times with PBS before immunoblotting. For immunoblotting, equivalent amounts of denatured proteins were separated through SDS-PAGE gels and then transferred to PVDF membranes (Millipore), which were each blocked with 5% nonfat milk in PBS and 0.1% Tween-20 (Sigma Aldrich) for 1 h. Then each membrane was incubated with a primary antibody overnight at 4° C., followed by incubation with a horseradish peroxidase conjugated secondary antibody for 1 h at room temperature. The signal was visualized by enhanced chemiluminescence detection, and images were acquired using a BioSpectrum Imaging System (UVP)."}, "PC9": {"test_system": "PC9", "experiment": "Cell cytotoxicity assay (MTS), PC9", "assay_type": "cell-based", "conditions": "Homo sapiens, PC-9, PC9, 72 h", "method": "as §1"}, "23 cancer cell lines": {"test_system": "23 cancer cell lines", "experiment": "Cytotoxicity against 23 cancer cell lines", "assay_type": "cell-based, human", "method": "as §1"}, "Hs578t": {"test_system": "Hs578t", "experiment": "Cell cytotoxicity assay (MTS), Hs578t", "assay_type": "cell-based", "conditions": "Homo sapiens, Hs-578T, 72 h", "method": "as §1"}}, "note": "Like-named read-outs stand apart in the source and are kept apart here."}
{"smiles": "CCOC(=O)c1ccc2[nH]c(-c3ccccc3)cc(=O)c2c1", "note": "[AS1712, Ethyl 4-oxo-2-phenyl-1,4-dihydroquinoline-6-carboxylate]", "values": [{"measurement": "IC50", "setting": "HCT116", "result": "0.05 ± 0.00081", "unit": "µM"}, {"measurement": "IC50", "setting": "HDQP1", "result": "0.068 ± 0.00538", "unit": "µM"}, {"measurement": "IC50", "setting": "KBvin; Homo sapiens, KBvin, P-gp overexpressing, vincristine-selected KB subline", "result": "0.037 ± 0.00077", "unit": "µM"}, {"measurement": "RF, resistance factor (IC50 in resistant cell line/IC50 in parent cell line)", "setting": "KBvin; KBvin vs KB", "result": 1}, {"measurement": "IC50", "setting": "SW620", "result": "0.035 ± 0.00118", "unit": "µM"}, {"measurement": "RF, resistance factor (IC50 in resistant cell line/IC50 in parent cell line)", "setting": "HDQP1/TAX; HDQP1/TAX vs HDQP1", "result": 0.92}, {"measurement": "IC50", "setting": "HDQP1/TAX; Homo sapiens, HDQ-P1, Paclitaxel-resistant subline", "result": "0.063 ± 0.0163", "unit": "µM"}, {"measurement": "IC50", "setting": "H1975 cells", "result": 0.035, "unit": "µM"}, {"measurement": "IC50", "setting": "H1975 cells; Homo sapiens, NCI-H1975, 72 h", "result": "0.033 ± 0.00486", "unit": "µM"}, {"measurement": "IC50", "setting": "KBtax; Homo sapiens, KBtax, P-gp overexpressing, paclitaxel-selected KB subline", "result": "0.03 ± 0.00065", "unit": "µM"}, {"measurement": "RF, resistance factor (IC50 in resistant cell line/IC50 in parent cell line)", "setting": "KBtax; KBtax vs KB", "result": 0.81}, {"measurement": "IC50", "setting": "BT-549", "result": "0.033 ± 0.00151", "unit": "µM"}, {"measurement": "IC50", "setting": "CL1-0", "result": "0.016 ± 0.00248", "unit": "µM"}, {"measurement": "IC50", "setting": "Du-145", "result": "0.047 ± 0.00128", "unit": "µM"}, {"measurement": "tubulin polymerization", "setting": "Purified porcine tubulin", "result": "directly inhibit tubulin polymerization"}, {"measurement": "IC50", "setting": "A549", "result": "0.02 ± 0.00098", "unit": "µM"}, {"measurement": "IC50", "setting": "HT-29", "result": "0.048 ± 0.00062", "unit": "µM"}, {"measurement": "RF, resistance factor (IC50 in resistant cell line/IC50 in parent cell line)", "setting": "CEM/VBL", "result": 0.97}, {"measurement": "IC50", "setting": "IGR-OV1", "result": "0.084 ± 0.00207", "unit": "µM"}, {"measurement": "IC50", "setting": "KB", "result": "0.037 ± 0.00027", "unit": "µM"}, {"measurement": "average tumor size", "setting": "H1975 xenograft tumor; 4 mg/kg intraperitoneally three times a week", "result": "871.3±106", "unit": "mm^3"}, {"measurement": "average tumor size", "setting": "H1975 xenograft tumor; 8 mg/kg intraperitoneally three times a week", "result": "587.2±67", "unit": "mm^3"}, {"measurement": "sub-G1 and G2/M-phase population", "setting": "CL1-0 and H1975 cells [1]", "result": "increased"}, {"measurement": "IC50", "setting": "MDA-MB-231", "result": "0.055 ± 0.00683", "unit": "µM"}, {"measurement": "IC50", "setting": "SKOV-3", "result": "0.05 ± 0.00032", "unit": "µM"}, {"measurement": "IC50", "setting": "PC-3", "result": "0.045 ± 0.00177", "unit": "µM"}, {"measurement": "cleavage of poly(ADP-ribose) polymerase (PARP) and caspase-3", "setting": "CL1-0 and H1975 cells [2]", "result": "induced cleavage"}, {"measurement": "IC50", "setting": "PC9", "result": "0.017 ± 0.00209", "unit": "µM"}, {"measurement": "IC50", "setting": "23 cancer cell lines; Homo sapiens, lung, breast, ovarian, head and neck, colon, prostate, leukemia lines, read-out: IC50 values for the 23 cancer cell lines tested", "result": "0.016 to 0.084", "unit": "µM"}, {"measurement": "therapeutic window", "setting": "23 cancer cell lines; cancer cell lines vs normal cells", "result": "> 100", "unit": "fold"}, {"measurement": "IC50", "setting": "Hs578t", "result": "0.041 ± 0.00287", "unit": "µM"}]}
